In US11970494B2, “6-heteroaryloxy benzimidazoles and azabenzimidazoles as JAK2 inhibitors” (Ajax Therapeutics, Inc., priority 2021, dated 2024):

Molecular target: T1, JAK2 (JH1 domain-catalytic, Y1007F,Y1008F) kinase (Homo sapiens, UniProt O60674, Y1007F/Y1008F)
T1 construct: made in house; host or cells: transiently transfected HEK293 cells
Assay: JAK2 Binding Assay (JAK2 JH1 Domain Binding Assay)
Conditions: not given

T1 sequence (O60674 849-1124 Y1007F/Y1008F limits assumed): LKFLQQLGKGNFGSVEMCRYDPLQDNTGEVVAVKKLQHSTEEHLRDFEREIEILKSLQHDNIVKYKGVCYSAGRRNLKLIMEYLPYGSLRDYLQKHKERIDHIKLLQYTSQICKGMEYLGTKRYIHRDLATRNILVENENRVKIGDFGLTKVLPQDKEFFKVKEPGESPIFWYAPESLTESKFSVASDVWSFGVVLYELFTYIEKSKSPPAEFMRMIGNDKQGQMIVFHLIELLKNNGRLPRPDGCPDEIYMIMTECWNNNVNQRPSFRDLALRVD

Compound	Kd
Cn1cc(C(F)(F)F)cc(Nc2nc3ncc(Oc4ccnc(NC(=O)CF)c4)c(Cl)c3n2C)c1=O [Example I-76, N-(4-((7-chloro-1-methyl-2-((1-methyl-2-oxo-5-(trifluoromethyl)-1,2-dihydropyridin-3-yl)amino)-1H-imidazo[4,5-b]pyridin-6-yl)oxy)pyridin-2-yl)-2-fluoroacetamide]	< 10 nM
Cn1cc(C(F)(F)F)cc(Nc2nc3ncc(Oc4ccnc(NC(=O)CF)c4)c(C#N)c3n2C)c1=O [Example I-84, N-(4-((7-cyano-1-methyl-2-((1-methyl-2-oxo-5-(trifluoromethyl)-1,2-dihydropyridin-3-yl)amino)-1H-imidazo[4,5-b]pyridin-6-yl)oxy)pyridin-2-yl)-2-fluoroacetamide]	< 10 nM

Same assay, conditions: JAK2 JH1 domain binding, qPCR detection; read-out: JAK2 Kd

Kd	Compound
< 10 nM	Cn1cc(C(F)(F)F)cc(Nc2nc3ncc(Oc4ccnc(NC(=O)C[C@H]5CCCCO5)c4)c(C#N)c3n2C)c1=O [Example I-74-b]
< 10 nM	CC(=O)Nc1cc(Oc2cnc3nc(Nc4cc(C(F)(F)F)cn(C)c4=O)n(C)c3c2)ccn1 [Example I-77, N-(4-((1-methyl-2-((1-methyl-2-oxo-5-(trifluoromethyl)-1,2-dihydropyridin-3-yl)amino)-1H-imidazo[4,5-b]pyridin-6-yl)oxy)pyridin-2-yl)acetamide]
< 10 nM	CC(=O)Nc1cc(Oc2cnc3nc(Nc4cc(C(F)(F)F)cn(CCO)c4=O)n(C)c3c2C#N)ccn1 [Example I-81]
< 10 nM	[2H]C([2H])([2H])n1cc(C(F)(F)F)cc(Nc2nc3ncc(Oc4ccnc(NC(C)=O)c4)c(Cl)c3n2C)c1=O [Example I-82, N-(4-((7-chloro-1-methyl-2-((1-(methyl-d3)-2-oxo-5-(trifluoromethyl)-1,2-dihydropyridin-3-yl)amino)-1H-imidazo[4,5-b]pyridin-6-yl)oxy)pyridin-2-yl)acetamide]
< 10 nM	[2H]C([2H])([2H])n1cc(C(F)(F)F)cc(Nc2nc3ncc(Oc4ccnc(NC(C)=O)c4)c(C#N)c3n2C)c1=O [Example I-83, N-(4-((7-cyano-1-methyl-2-((1-(methyl-d3)-2-oxo-5-(trifluoromethyl)-1,2-dihydropyridin-3-yl)amino)-1H-imidazo[4,5-b]pyridin-6-yl)oxy)pyridin-2-yl)acetamide]
< 10 nM	Cn1cc(C(F)(F)F)cc(Nc2nc3ncc(Oc4ccnc(NC(=O)CO)c4)c(Cl)c3n2C)c1=O [Example I-86, N-(4-((7-chloro-1-methyl-2-((1-methyl-2-oxo-5-(trifluoromethyl)-1,2-dihydropyridin-3-yl)amino)-1H-imidazo[4,5-b]pyridin-6-yl)oxy)pyridin-2-yl)hydroxyacetamide]
< 10 nM	Cn1c(Nc2cc(C(F)(F)F)cn(CCO)c2=O)nc2ncc(Oc3ccnc(NC(=O)C4CC4)c3)c(C#N)c21 [Example I-89, N-(4-((7-cyano-2-((1-(2-hydroxyethyl)-2-oxo-5-(trifluoromethyl)-1,2-dihydropyridin-3-yl)amino)-1-methyl-1H-imidazo[4,5-b]pyridin-6-yl)oxy)pyridin-2-yl)cyclopropanecarboxamide]

The next lines start with the compound.

Compound	Kd
COC(=O)Nc1cc(Oc2cnc3nc(Nc4cc5n(n4)CCN5C(C)(C)C)n(C)c3c2C#N)ccn1 [Example I-71, methyl(4-((2-((1-(tert-butyl)-2,3-dihydro-1H-imidazo[1,2-b]pyrazol-6-yl)amino)-7-cyano-1-methyl-1H-imidazo[4,5-b]pyridin-6-yl)oxy)pyridin-2-yl)carbamate]	< 10 nM
CNC(=O)Nc1cc(Oc2cnc3nc(Nc4cc5n(n4)CCN5C(C)(C)C)n(C)c3c2C#N)ccn1 [Example I-72, 1-(4-((2-((1-(tert-butyl)-2,3-dihydro-1H-imidazo[1,2-b]pyrazol-6-yl)amino)-7-cyano-1-methyl-1H-imidazo[4,5-b]pyridin-6-yl)oxy)pyridin-2-yl)-3-methylurea]	< 10 nM
CN(C)C(=O)Nc1cc(Oc2cnc3nc(Nc4cc5n(n4)CC(C)(C)OC5)n(C)c3c2C#N)ccn1 [Example I-73, 3-(4-((7-cyano-2-((6,6-dimethyl-6,7-dihydro-4H-pyrazolo[5,1-c][1,4]oxazin-2-yl)amino)-1-methyl-1H-imidazo[4,5-b]pyridin-6-yl)oxy)pyridin-2-yl)-1,1-dimethylurea]	10 to 50 nM
COc1c(Oc2ccnc(NC(C)=O)c2)cnc2nc(Nc3cc(C(F)(F)F)cn(CCO)c3=O)n(C)c12 [Example I-80, N-(4-((2-((1-(2-hydroxyethyl)-2-oxo-5-(trifluoromethyl)-1,2-dihydropyridin-3-yl)amino)-7-methoxy-1-methyl-1H-imidazo[4,5-b]pyridin-6-yl)oxy)pyridin-2-yl)acetamide]	< 10 nM
COCCNCC(=O)Nc1cc(Oc2cnc3nc(Nc4cc(C(F)(F)F)cn(C)c4=O)n(C)c3c2Cl)ccn1 [Example I-85, N-(4-((7-chloro-1-methyl-2-((1-methyl-2-oxo-5-(trifluoromethyl)-1,2-dihydropyridin-3-yl)amino)-1H-imidazo[4,5-b]pyridin-6-yl)oxy)pyridin-2-yl)-2-((2-methoxyethyl)amino)acetamide]	< 10 nM
Cn1cc(C(F)(F)F)cc(Nc2nc3ncc(Oc4ccnc(NC(=O)CNCCF)c4)c(Cl)c3n2C)c1=O [Example I-87, N-(4-((7-chloro-1-methyl-2-((1-methyl-2-oxo-5-(trifluoromethyl)-1,2-dihydropyridin-3-yl)amino)-1H-imidazo[4,5-b]pyridin-6-yl)oxy)pyridin-2-yl)-2-((2-fluoroethyl)amino)acetamide]	< 10 nM
CC(=O)Nc1cc(Oc2cnc3nc(Nc4cc5n(n4)CCCC5(F)F)n(C)c3c2Cl)ccn1 [Example I-92, N-(4-((7-chloro-2-((4,4-difluoro-4,5,6,7-tetrahydropyrazolo[1,5-a]pyridin-2-yl)amino)-1-methyl-1H-imidazo[4,5-b]pyridin-6-yl)oxy)pyridin-2-yl)acetamide]	< 10 nM
CC(=O)Nc1cc(Oc2cnc3nc(Nc4cc5n(n4)CCCC5(F)F)n(C)c3c2C#N)ccn1 [Example I-93, N-(4-((7-cyano-2-((4,4-difluoro-4,5,6,7-tetrahydropyrazolo[1,5-a]pyridin-2-yl)amino)-1-methyl-1H-imidazo[4,5-b]pyridin-6-yl)oxy)pyridin-2-yl)acetamide]	< 10 nM
CC(=O)Nc1cc(Oc2cnc3nc(Nc4ccc(CN(C)C)c(C(F)(F)F)c4)n(C)c3c2Cl)ccn1 [Example I-94, N-(4-((7-chloro-2-((4-((dimethylamino)methyl)-3-(trifluoromethyl)phenyl)amino)-1-methyl-1H-imidazo[4,5-b]pyridin-6-yl)oxy)pyridin-2-yl)acetamide]	< 10 nM
CC(=O)Nc1cc(Oc2cnc3nc(Nc4cc(OC[C@@H]5CCCN5C)cc(C(F)(F)F)c4)n(C)c3c2Cl)ccn1 [Example I-96, (S)-N-(4-((7-chloro-1-methyl-2-((3-((1-methylpyrrolidin-2-yl)methoxy)-5-(trifluoromethyl)phenyl)amino)-1H-imidazo[4,5-b]pyridin-6-yl)oxy)pyridin-2-yl)acetamide]	< 10 nM
CC(=O)Nc1cc(Oc2cnc3nc(Nc4cc(OC[C@H]5CCCN5C)cc(C(F)(F)F)c4)n(C)c3c2Cl)ccn1 [Example I-97, (R)-N-(4-((7-chloro-1-methyl-2-((3-((1-methylpyrrolidin-2-yl)methoxy)-5-(trifluoromethyl)phenyl)amino)-1H-imidazo[4,5-b]pyridin-6-yl)oxy)pyridin-2-yl)acetamide]	< 10 nM
